Experimental data published in patent publication US11739100B2, “2,3-dihydro-1h-imidazo{1,2-a}pyrimidin-5-one and this 1,2,3,4-tetrahydropyrimido{1,2-a}pyrimidin-6-one derivatives comprising a substituted morpholine, preparation thereof and pharmaceutical use thereof” (SANOFI, priority 2012, dated 2023).
pIC50: −log10 of the molar value.

Biological target: T1, recombinant Vps34 (Homo sapiens, UniProt Q8NEB9)
T1 construct: purchased Invitrogen PV5126
Assay: Phosphorylation of phosphatidylinositol (PI) by Vps34 in vitro, ADP detected by TR-FRET (HTRF Transcreener ADP)
Type: biochemical
Details: 10 μM ATP, 55 μg/ml PI, approximately 3 nM Vps34, 1 hour at ambient temperature; absolute IC50, mean of two independent experiments; read-out: IC50 activity range

T1 sequence (Q8NEB9 whole entry): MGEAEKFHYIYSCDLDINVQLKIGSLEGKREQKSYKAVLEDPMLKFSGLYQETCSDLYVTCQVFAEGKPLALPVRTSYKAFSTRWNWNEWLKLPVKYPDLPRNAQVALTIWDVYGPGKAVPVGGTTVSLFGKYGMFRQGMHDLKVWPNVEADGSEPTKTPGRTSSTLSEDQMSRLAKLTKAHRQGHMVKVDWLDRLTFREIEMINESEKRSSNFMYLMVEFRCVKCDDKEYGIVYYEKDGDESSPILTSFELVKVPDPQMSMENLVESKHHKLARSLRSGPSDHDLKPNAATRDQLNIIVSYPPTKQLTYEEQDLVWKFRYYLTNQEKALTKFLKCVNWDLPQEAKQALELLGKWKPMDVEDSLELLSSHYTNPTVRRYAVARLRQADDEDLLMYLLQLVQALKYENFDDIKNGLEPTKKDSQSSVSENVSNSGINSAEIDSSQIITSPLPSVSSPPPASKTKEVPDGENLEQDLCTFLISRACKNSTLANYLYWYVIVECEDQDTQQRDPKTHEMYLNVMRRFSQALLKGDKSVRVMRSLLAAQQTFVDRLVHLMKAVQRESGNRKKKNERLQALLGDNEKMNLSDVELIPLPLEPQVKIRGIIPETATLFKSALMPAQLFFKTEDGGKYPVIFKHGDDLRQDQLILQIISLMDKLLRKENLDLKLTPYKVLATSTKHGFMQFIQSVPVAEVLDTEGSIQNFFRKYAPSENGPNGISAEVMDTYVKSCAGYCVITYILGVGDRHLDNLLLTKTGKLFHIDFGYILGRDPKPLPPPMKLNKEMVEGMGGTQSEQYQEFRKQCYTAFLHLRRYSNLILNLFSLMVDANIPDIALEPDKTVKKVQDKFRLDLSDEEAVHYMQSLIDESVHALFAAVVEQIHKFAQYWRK

Structure (SMILES)	pIC50
C[C@@H]1COCCN1c1cc(=O)n2c(n1)N(CCO)[C@H](C(F)(F)F)CC2 [Example 315, (S)-9-(2-Hydroxy-ethyl)-2-((R)-3-methyl-morpholin-4-yl)-8-trifluoromethyl-6,7,8,9-tetrahydro-pyrimido[1,2-a]-pyrimidin-4-one]	> 8.00
C[C@@H]1COCCN1c1cc(=O)n2c(n1)N(CCC(C)(C)F)[C@H](C(F)(F)F)CC2 [Example 267, (S)-9-(3-Fluoro-3-methylbutyl)-2-((R)-3-methylmorpholin-4-yl)-8-trifluoromethyl-6,7,8,9-tetrahydro-pyrimido[1,2-a]-pyrimidin-4-one]	> 8.00
C[C@@H]1COCCN1c1nc2n(c(=O)c1F)CC[C@@H](C(F)(F)F)N2c1ccc(C(F)F)nc1 [Example 53, (S)-9-(6-Difluoromethylpyridin-3-yl)-3-fluoro-2-((R)-3-methylmorpholin-4-yl)-8-trifluoromethyl-6,7,8,9-tetrahydro-pyrimido[1,2-a]-pyrimidin-4-one]	> 8.00
C[C@@H]1COCCN1c1cc(=O)n2c(n1)N(C[C@H](F)c1ccccc1)[C@H](C(F)(F)F)CC2 [Example 295, (S)-9-(2-Fluoro-2-phenylethyl)-2-((R)-3-methylmorpholin-4-yl)-8-trifluoromethyl-6,7,8,9-tetrahydro-pyrimido[1,2-a]-pyrimidin-4-one]	> 8.00
C[C@@H]1COCCN1c1cc(=O)n2c(n1)N(CC(O)c1cccnc1)[C@H](C(F)(F)F)CC2 (single isomer, unassigned) [Example 209]	> 8.00
O=c1cc(N2CC3CCC(C2)O3)nc2n1CC[C@@H](C(F)(F)F)N2Cc1ccon1 [Example 169, (S)-9-Isoxazol-3-yl-methyl-2-(8-oxa-3-azabicyclo[3.2.1]oct-3-yl)-8-trifluoromethyl-6,7,8,9-tetrahydro-pyrimido[1,2-a]-pyrimidin-4-one]	7.00 to 8.00
C[C@@H]1COCCN1c1cc(=O)n2c(n1)N(CC(=O)OC1CCCC1)[C@H](C(F)(F)F)CC2 [Example 243, [(S)-8-((R)-3-Methyl-morpholin-4-yl)-6-oxo-2-trifluoromethyl-3,4-dihydro-2H,6H-pyrimido[1,2-a]-pyrimidin-1-yl]acetic acid cyclopentyl ester]	> 8.00
C[C@@H]1COCCN1c1cc(=O)n2c(n1)N(C/C(=N\O)C1CC1)[C@H](C(F)(F)F)CC2 (single isomer, unassigned) [Example 304]	> 8.00
O=C(CN1c2nc(N3CC4CCC(C3)O4)cc(=O)n2CC[C@H]1C(F)(F)F)c1cccnc1 [Example 170, (S)-2-(8-Oxa-3-aza-bicyclo[3.2.1]oct-3-yl)-9-(2-oxo-2-pyridin-3-ylethyl)-8-trifluoromethyl-6,7,8,9-tetrahydro-pyrimido[1,2-a]-pyrimidin-4-one]	7.00 to 8.00
O=c1cc(N2CC3CCC(C2)O3)nc2n1CC[C@@H](C(F)(F)F)N2Cc1ccc(Cl)s1 [Example 162, (S)-9-(5-Chloro-thiophen-2-ylmethyl)-2-(8-oxa-3-aza-bicyclo[3.2.1]oct-3-yl)-8-trifluoromethyl-6,7,8,9-tetrahydro-pyrimido[1,2-a]-pyrimidin-4-one]	7.00 to 8.00
C[C@@H]1COCCN1c1cc(=O)n2c(n1)N(Cc1cnco1)[C@H](C(F)(F)F)CC2 [Example 91, (S)-2-((R)-3-Methyl-morpholin-4-yl)-9-oxazol-5-ylmethyl-8-trifluoromethyl-6,7,8,9-tetrahydro-pyrimido[1,2-a]-pyrimidin-4-one]	> 8.00
C[C@@H]1COC[C@@H](C)N1c1cc(=O)n2c(n1)N(Cc1ccnc(Cl)c1)[C@H](C(F)(F)F)CC2 [Example 157, (S)-9-(2-Chloro-pyridin-4-ylmethyl)-2-((3R,5R)-3,5-dimethyl-morpholin-4-yl)-8-trifluoromethyl-6,7,8,9-tetrahydro-pyrimido[1,2-a]-pyrimidin-4-one]	> 8.00
CON(C)C(=O)CN1c2nc(N3CCOC[C@H]3C)c(F)c(=O)n2CC[C@H]1C(F)(F)F [Example 23, 2-[(S)-7-Fluoro-8-((R)-3-methylmorpholin-4-yl)-6-oxo-2-trifluoromethyl-3,4-dihydro-2H,6H-pyrimido[1,2-a]-pyrimidin-1-yl]-N-methoxy-N-methyl-acetamide]	> 8.00
O=c1cc(N2CCOC(CF)C2)nc2n1CC[C@@H](C(F)(F)F)N2Cc1ccccc1 (single isomer, unassigned) [Example 194]	< 7.00

The next lines start with the values.

pIC50	Structure (SMILES)
> 8.00	C[C@@H]1COCCN1c1cc(=O)n2c(n1)N(c1ccncc1)[C@H](C(F)(F)F)CC2 [Example 198, (S)-2-((R)-3-Methyl-morpholin-4-yl)-9-pyridin-4-yl-8-trifluoromethyl-6,7,8,9-tetrahydro-pyrimido[1,2-a]-pyrimidin-4-one]
> 8.00	C[C@@H]1COCCN1c1cc(=O)n2c(n1)N(CC(=O)c1ccnc(Cl)c1)[C@H](C(F)(F)F)CC2 [Example 10, (S)-9-[2-(2-Chloro-pyridin-4-yl)-2-oxo-ethyl]-2-((R)-3-methyl-morpholin-4-yl)-8-trifluoromethyl-6,7,8,9-tetrahydro-pyrimido[1,2-a]-pyrimidin-4-one]
> 8.00	C[C@@H]1COCCN1c1nc2n(c(=O)c1F)CC[C@@H](C(F)(F)F)N2Cc1cnco1 [Example 111, (S)-3-Fluoro-2-((R)-3-methylmorpholin-4-yl)-9-oxazol-5-ylmethyl-8-trifluoromethyl-6,7,8,9-tetrahydro-pyrimido[1,2-a]-pyrimidin-4-one]
7.00 to 8.00	C[C@@H]1COCCN1c1cc(=O)n2c(n1)N(Cc1ccno1)CC[C@@H]2C(F)(F)F [Example 105, (R)-9-Isoxazol-5-yl-methyl-2-((R)-3-methylmorpholin-4-yl)-6-trifluoromethyl-6,7,8,9-tetrahydro-pyrimido[1,2-a]-pyrimidin-4-one]
> 8.00	C[C@@H]1COCCN1c1cc(=O)n2c(n1)N(Cc1nnc[nH]1)[C@H](C(F)(F)F)CC2 [Example 264, (S)-2-((R)-3-Methyl-morpholin-4-yl)-9-(4H-[1,2,4]triazol-3-yl-methyl)-8-trifluoromethyl-6,7,8,9-tetrahydro-pyrimido[1,2-a]-pyrimidin-4-one]
> 8.00	C[C@@H]1COCCN1c1cc(=O)n2c(n1)N(Cc1cscn1)[C@H](C(F)(F)F)CC2 [Example 78, (S)-2-((R)-3-Methyl-morpholin-4-yl)-9-thiazol-4-ylmethyl-8-trifluoromethyl-6,7,8,9-tetrahydro-pyrimido[1,2-a]-pyrimidin-4-one]
> 8.00	C[C@@H]1COC[C@@H](C)N1c1cc(=O)n2c(n1)N(Cc1ccon1)[C@H](C(F)(F)F)CC2 [Example 313, (S)-2-((3R,5R)-3,5-Dimethylmorpholin-4-yl)-9-isoxazol-3-yl-methyl-8-trifluoromethyl-6,7,8,9-tetrahydropyrimido-[1,2-a]pyrimidin-4-one]
> 8.00	Cc1nocc1CN1CC[C@H](C(F)(F)F)n2c1nc(N1CCOC[C@H]1C)cc2=O [Example 143, (R)-9-(3-Methyl-isoxazol-4-ylmethyl)-2-((R)-3-methyl-morpholin-4-yl)-6-trifluoromethyl-6,7,8,9-tetrahydro-pyrimido[1,2-a]-pyrimidin-4-one]
> 8.00	Cc1nc(CN2CC[C@H](C(F)(F)F)n3c2nc(N2CCOC[C@H]2C)cc3=O)no1 [Example 27, (R)-2-((R)-3-Methyl-morpholin-4-yl)-9-(5-methyl-[1,2,4]oxadiazol-3-yl-methyl)-6-trifluoromethyl-6,7,8,9-tetrahydro-pyrimido[1,2-a]-pyrimidin-4-one]
> 8.00	C[C@@H]1COCCN1c1cc(=O)n2c(n1)N(CC(=O)N1CCCCO1)[C@H](C(F)(F)F)CC2 [Example 318, (S)-2-((R)-3-Methyl-morpholin-4-yl)-9-(2-[1,2]oxazinan-2-yl-2-oxoethyl)-8-trifluoromethyl-6,7,8,9-tetrahydropyrimido-[1,2-a]pyrimidin-4-one]
> 8.00	COC(=O)CN1c2nc(N3CCOC[C@H]3C)cc(=O)n2CC[C@H]1C(F)(F)F [Example 262, [(S)-8-((R)-3-Methyl-morpholin-4-yl)-6-oxo-2-trifluoromethyl-3,4-dihydro-2H,6H-pyrimido[1,2-a]-pyrimidin-1-yl]acetic acid methyl ester]
> 8.00	CCC(CC)C(=O)CN1c2nc(N3CCOC[C@H]3C)c(F)c(=O)n2CC[C@H]1C(F)(F)F [Example 282, (S)-9-(3-Ethyl-2-oxo-pentyl)-3-fluoro-2-((R)-3-methylmorpholin-4-yl)-8-trifluoromethyl-6,7,8,9-tetrahydro-pyrimido[1,2-a]-pyrimidin-4-one]
> 8.00	C[C@@H]1COCCN1c1nc2n(c(=O)c1F)CC[C@@H](C(F)(F)F)N2CC(C)(C)O [Example 49, (S)-3-Fluoro-9-(2-hydroxy-2-methyl-propyl)-2-((R)-3-methylmorpholin-4-yl)-8-trifluoromethyl-6,7,8,9-tetrahydro-pyrimido[1,2-a]-pyrimidin-4-one]
> 8.00	C[C@@H]1COCCN1c1cc(=O)n2c(n1)N(CC(=O)Cc1ccccn1)[C@H](C(F)(F)F)CC2 [Example 67, (S)-2-((R)-3-Methyl-morpholin-4-yl)-9-(2-oxo-3-pyridin-2-yl-propyl)-8-trifluoromethyl-6,7,8,9-tetrahydro-pyrimido[1,2-a]-pyrimidin-4-one]
7.00 to 8.00	C[C@@H]1COC[C@@H](C)N1c1cc(=O)n2c(n1)N(Cc1cnc(Cl)s1)[C@H](C(F)(F)F)CC2 [Example 312, (S)-9-(2-Chloro-thiazol-5-ylmethyl)-2-((3R,5R)-3,5-dimethyl-morpholin-4-yl)-8-trifluoromethyl-6,7,8,9-tetrahydro-pyrimido[1,2-a]-pyrimidin-4-one]
> 8.00	C[C@@H]1COCCN1c1nc2n(c(=O)c1F)CC[C@@H](C(F)(F)F)N2Cc1ccnn1C(F)F [Example 297, (S)-9-(2-Difluoromethyl-2H-pyrazol-3-ylmethyl)-3-fluoro-2-((R)-3-methyl-morpholin-4-yl)-8-trifluoromethyl-6,7,8,9-tetrahydro-pyrimido[1,2-a]-pyrimidin-4-one]
